This is an account of results in patent EP4471049A1 (Zealand Pharma A/S, priority 2023, dated 2024).

Where two headings read alike, the source gives them in different places. *1 amine or outer side, *2 acyl side, *3 side chain or, on linkers, in order; H or OH if unused. Where a SMILES comes first, the peptide text is derived from it. Bridges are numbered along the chain shown (N, C = ends). [ ]: non-standard residue; d: D form. 2Nal = N[C@@H](Cc1ccc2ccccc2c1)C(=O)O; AEF = NCCOc1ccc(C[C@H](N)C(=O)O)cc1; X1 = O=C(Cc1ccc(CN[*:1])cc1)[*:2]; 3Pal = N[C@@H](Cc1cccnc1)C(=O)O; αMeL = CC(C)C[C@](C)(N)C(=O)O; Dab = NCC[C@H](N)C(=O)O; Sar = CNCC(=O)O

The target of series [1] is IL-23 mediated STAT3 signalling (Homo sapiens, UniProt Q5VWK5). Briefly: Functional inhibition of IL-23 mediated STAT3 signalling (phospho-STAT3 Tyr705 MSD, DB cells). The series is classed as cell-based. The method, then: The ability of compounds to inhibit IL-23 mediated signalling was determined in the human-derived DB cell line (CRL-2289) (hereafter referred to as DB cells), which endogenously expresses the human IL-23R and human IL-12R β1 subunits. Upon binding of IL-23, the IL-23R forms a heterodimer signalling complex together with IL-12R β1, which through the JAK2/STAT3 pathway promotes phosphorylation of STAT3 to form phospho-STAT3. In the assay, the functional antagonism of IL-23 mediated phospho-STAT3 formation in DB cells by the compound is quantified using reagents capable of measuring the phosphorylation state of Tyr705 of STAT3 in the form of a phospho-STAT3 (Tyr705) MSD (Meso Scale Discovery) kit.
[…]. For compounds tested in this assay, the response was normalized relative to control values to calculate the IC50 and maximal inhibitory response from a concentration response curve of the compound in presence of a fixed concentration of human IL-23.
The assay procedure was as follows. DB cells were maintained in growth medium consisting of RPMI-1640 [Invitrogen 61870-010] supplemented with 10% V/V Foetal Bovine Serum (FBS) [(heat inactivated), Invitrogen 10270-106], and 1% V/V Penicillin-Streptomycin (Pen-Strep) Solution [Invitrogen 15140]. On the day of assay, cells were resuspended in Assay buffer consisting of RPMI-1640 [Invitrogen 61870-010] supplemented with 0.1 % w/V BSA [Sigma-Aldrich A9430] to a density of 7.5x10^6 cells/mL. Compounds to be tested for inhibition of hIL-23 mediated signalling were serially diluted in Assay buffer to 3X the final concentration. A solution of hIL-23 corresponding to 3X the EC80 of hIL-23 (1.7 nM) was also prepared in Assay buffer. To initiate the assay, 20 µL of DB cell suspension (corresponding to 150.000 cells/well) was added to the wells of a 96-well V-bottom Polypropylene plate [Corning 3363] followed by addition of 3X 20 µL of the diluted test compounds to separate wells. Following preincubation of the DB cells with inhibitor for 15 min in a cell incubator (37 °C, 5% CO2), 20 µL of the prepared 3X the EC80 of hIL-23 solution was added to each well and incubated for 90 min in a cell incubator (37 °C, 5% CO2). For some wells buffer only or IL-23 only corresponding to the EC80 was added to obtain readouts needed for normalization. To terminate the assay, the plate was spun at 1000 G for 5 min to pellet cells, the supernatant removed using an 8-channel manual pipette, and then added 50 µL/well Complete Lysis Buffer from the MSD STAT3 kit (Cat# K150SVD, Mesoscale) to the cell pellet. To completely lyse cells to release phospho-STAT3 for detection, the plate was shaken for 10 min at room temperature (500 rpm) sealed with aluminium foil and placed at -80 °C for a minimum of 15 min. Detection of the phospho-STAT3 level in the cell lysate from the individual wells was determined using the MSD STAT3 kit (Cat# K150SVD, Mesoscale) and read on a Meso QuickPlex SQ 120 plate reader (Mesoscale).
For data analysis raw data counts from the Meso QuickPlex SQ 120 plate reader were normalized relative to the response by the EC80 of hIL-23 alone (no compound added) and the buffer level. Compound potency (IC50) and maximal inhibitory response (% inhibition) were estimated by computer-aided curve fitting using a 4-parameter logistic (4PL) non-linear model. […]. Typically compounds with a low IC50 are desired. Typically compounds capable of completely inhibiting the IL23-induced response are desired. […]. Table 3-2: hIL-23 (pSTAT3) antagonist IC50 and % inhibition data

Series [2] in a line: Peptide stability in simulated intestinal fluid (SIF). The series is classed as in vitro ADME. Particulars: for remaining at 4 h, 10 µM / remaining at 1 h, 10 µM: pig, simulated intestinal fluid (SIF) with porcine pancreatin. Summed up:
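Peptides were incubated at 37 °C with gentle shaking in pH 6.8 potassium phosphate SIF containing porcine pancreatin (10 g/L). Supernatants were analysed by LC-HRMS. Percent remaining at each timepoint, including 4 h, was calculated relative to time zero from absolute peak areas.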

Series [3] can be described thus: Peptide stability in simulated gastric fluid (SGF). The class given is in vitro ADME. As to conditions: pig, simulated gastric fluid (SGF) with porcine pepsin, 37 °C, pH 1.2, porcine pepsin 3.2 g/L. The essentials:
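Peptide incubated at 37 °C with gentle shaking in SGF (NaCl, pH 1.2). Samples centrifuged, diluted and analysed by LC-HRMS; percent remaining at each timepoint from absolute peak areas relative to time zero, with 4 h as the reference point.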

The mark [4] stands for this setting: Example 2 (Tables 2-1 to 2-4), read-out: IC50 (pSTAT3).
Setting [5] is: 4 h, 37 °C, pH 6.8, porcine pancreatin 10 g/L, 10 µM.
The mark [6] stands for this setting: pH 6.8, Example 2 (Tables 2-1 to 2-4), intact peptide remaining after 4 h, read-out: SIF (% after 4 h).
Where [7] appears, read: 37 °C, pH 6.8, porcine pancreatin 10 g/L, 10 µM.

IL-23 mediated STAT3 signalling, sequence (Q5VWK5 24-629 limits assumed): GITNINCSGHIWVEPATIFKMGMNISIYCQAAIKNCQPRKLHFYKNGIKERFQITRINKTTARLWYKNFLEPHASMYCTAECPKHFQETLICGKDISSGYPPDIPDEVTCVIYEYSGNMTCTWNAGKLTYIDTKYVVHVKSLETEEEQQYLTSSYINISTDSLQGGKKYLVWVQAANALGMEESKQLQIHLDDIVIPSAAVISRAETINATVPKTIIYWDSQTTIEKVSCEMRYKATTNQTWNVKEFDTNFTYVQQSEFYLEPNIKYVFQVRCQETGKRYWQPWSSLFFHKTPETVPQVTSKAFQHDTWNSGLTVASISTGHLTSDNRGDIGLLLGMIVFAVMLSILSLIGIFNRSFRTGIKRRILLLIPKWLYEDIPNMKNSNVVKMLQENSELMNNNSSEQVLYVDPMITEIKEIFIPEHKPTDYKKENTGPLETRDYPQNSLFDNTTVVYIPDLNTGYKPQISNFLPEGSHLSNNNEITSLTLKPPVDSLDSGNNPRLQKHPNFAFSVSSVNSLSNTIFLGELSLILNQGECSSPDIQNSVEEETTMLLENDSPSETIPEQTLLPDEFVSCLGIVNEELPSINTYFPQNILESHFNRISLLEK

As to `CC(C)C[C@]1(C)NC(=O)[C@H](Cc2ccc3ccccc3c2)NC(=O)[C@H](Cc2ccc(OCCN)cc2)NC(=O)[C@@H]2CCNC(=O)CC[C@H](NC(=O)[C@H](CO)NC(=O)Cc3ccc(cc3)CNC(=O)CC[C@@H](C(=O)N[C@@H](CCN)C(=O)NCCCCc3cccnc3)NC1=O)C(=O)N[C@@H](Cc1c[nH]c3ccccc13)C(=O)N[C@@H](CCC(N)=O)C(=O)N2` [Compound 6, [4-Aminomethyl-phenylacetyl](1c)*SE(2c)WQ[Dab](2c)[Y(2-aminoethoxy)][2-Nal][2-Me-Leu]E(1c)[Dab]-[NH-(4-(pyridin-3-yl)butanyl)]], the concentration for half-maximal inhibition (IC50) in series [1] (setting [4]) is 3.2 nM. For the same molecule, the “SIF (% remaining 4 h)” value in series [2] (setting [5]) is recorded as 73%. In addition, the remaining at 4 h, 10 µM in series [2] (setting [6]) is 73%.
For the molecule `CC(C)C[C@]1(C)NC(=O)[C@H](Cc2ccc3ccccc3c2)NC(=O)[C@H](Cc2ccc(OCCN)cc2)NC(=O)[C@@H]2CCNC(=O)CC[C@H](NC(=O)[C@H](CO)NC(=O)Cc3ccc(cc3)CNC(=O)CC[C@@H](C(=O)N[C@@H](CCN)C(=O)N[C@@H](Cc3c[nH]cn3)C(=O)N[C@@H](Cc3cccnc3)C(N)=O)NC1=O)C(=O)N[C@@H](Cc1c[nH]c3ccccc13)C(=O)N[C@@H](CCC(N)=O)C(=O)N2` [Compound 12, [4-Aminomethyl-phenylacetyl](1c)*SE(2c)WQ[Dab](2c)[Y(2-aminoethoxy)][2-Nal][2-Me-Leu]E(1c)[Dab]H[3-(3-Pyridyl)-Ala]-[NH2]] ([X1]SEWQ[Dab][AEF][2Nal][αMeL]E[Dab]H[3Pal]-NH2; lactam 3-6, N-10), the IC50 in series [1] (Table 3-2, EC80 of hIL-23, read-out: hIL-23 (pSTAT3) antagonist IC50) is 3.5 nM. The remaining at 4 h, 10 µM in series [3] is 93%; in series [2] (4 h, 37 °C, pH 6.8, porcine pancreatin 10 g/L, 10 µM, read-out: SIF (% remaining 4 h)), 2%. The remaining at 1 h, 10 µM in series [2] (setting [7]) is 60%.
Turning to `CC(C)C[C@]1(C)NC(=O)[C@H](Cc2ccc3ccccc3c2)NC(=O)[C@H](Cc2ccc(OCCN)cc2)NC(=O)[C@@H]2CCNC(=O)CC[C@H](NC(=O)[C@H](CO)NC(=O)Cc3ccc(cc3)CNC(=O)CC[C@@H](C(=O)N[C@@H](CCN)C(=O)N[C@H](Cc3cccnc3)C(N)=O)NC1=O)C(=O)N[C@@H](Cc1c[nH]c3ccccc13)C(=O)N[C@@H](CCC(N)=O)C(=O)N2` [Compound 5, [4-Aminomethyl-phenylacetyl](1c)*SE(2c)WQ[Dab](2c)[Y(2-aminoethoxy)][2-Nal][2-Me-Leu]E(1c)[Dab][{d}3-(3-Pyridyl)-Ala]-[NH2]], in series [1] (setting [4]), the half-maximal inhibitory concentration (IC50) was 2.1 nM. Besides, in series [3], the remaining at 1 h, 10 µM is 99%. In addition, the “SIF (% remaining 4 h)” value in series [2] (setting [5]) is 41%. Also, in series [2] (setting [6]), the remaining at 4 h, 10 µM was 41%.
Consider `CC(C)C[C@]1(C)NC(=O)[C@H](Cc2ccc3ccccc3c2)NC(=O)[C@H](Cc2ccc(OCCN)cc2)NC(=O)[C@@H]2CCNC(=O)CC[C@H](NC(=O)[C@H](CO)NC(=O)Cc3ccc(cc3)CNC(=O)CC[C@@H](C(=O)N[C@@H](CCN)C(=O)N(C)[C@@H](Cc3cccnc3)C(N)=O)NC1=O)C(=O)N[C@@H](Cc1c[nH]c3ccccc13)C(=O)N[C@@H](CCC(N)=O)C(=O)N2` [Compound 4, [4-Aminomethyl-phenylacetyl](1c)*SE(2c)WQ[Dab](2c)[Y(2-aminoethoxy)][2-Nal][2-Me-Leu]E(1c)[Dab][N-Me-3-(3-Pyridyl)-Ala]-[NH2]], for which the 50% inhibitory concentration (IC50) in series [1] (setting [4]) was 6.5 nM. In series [3], the remaining at 1 h, 10 µM is 97%. Besides, the remaining at 4 h, 10 µM in series [2] (setting [6]) is 89%.
In the case of `CC(C)C[C@]1(C)NC(=O)[C@H](Cc2ccc3ccccc3c2)NC(=O)[C@H](Cc2ccc(OCCN)cc2)NC(=O)[C@@H]2CCNC(=O)CC[C@H](NC(=O)[C@H](CO)NC(=O)Cc3ccc(cc3)CNC(=O)CC[C@@H](C(=O)N[C@@H](CCN)C(=O)NCCc3cccnc3)NC1=O)C(=O)N[C@@H](Cc1c[nH]c3ccccc13)C(=O)N[C@@H](CCC(N)=O)C(=O)N2` [Compound 7, [4-Aminomethyl-phenylacetyl](1c)*SE(2c)WQ[Dab](2c)[Y(2-aminoethoxy)][2-Nal][2-Me-Leu]E(1c)[Dab]-[NH-(2-(pyridin-3-yl)ethyl)]], the IC50 in series [1] (setting [4]) was 0.13 nM. Also, in series [3], the remaining at 1 h, 10 µM is 77% and the remaining at 4 h, 10 µM was 82%. Further, the “SIF (% remaining 4 h)” value in series [2] (setting [5]) is listed as 130%. Moreover, in series [2] (Example 2 (Tables 2-1 to 2-4), intact peptide remaining after 4 h), the “SIF (% after 4 h)” value is recorded as 130%.
As for `CC(C)C[C@]1(C)NC(=O)[C@H](Cc2ccc3ccccc3c2)NC(=O)[C@H](Cc2ccc(OCCN)cc2)NC(=O)[C@@H]2CCNC(=O)CC[C@H](NC(=O)[C@H](CO)NC(=O)Cc3ccc(cc3)CNC(=O)CC[C@@H](C(=O)N[C@@H](CCN)C(=O)N[C@@H](Cc3cccnc3)C(=O)N(C)CC(N)=O)NC1=O)C(=O)N[C@@H](Cc1c[nH]c3ccccc13)C(=O)N[C@@H](CCC(N)=O)C(=O)N2` [Compound 9, [4-Aminomethyl-phenylacetyl](1c)*SE(2c)WQ[Dab](2c)[Y(2-aminoethoxy)][2-Nal][2-Me-Leu]E(1c)[Dab][3-(3-Pyridyl)-Ala][Sar]-[NH2]] ([X1]SEWQ[Dab][AEF][2Nal][αMeL]E[Dab][3Pal][Sar]-NH2; lactam 3-6, N-10), the IC50 in series [1] (setting [4]) turned out to be 0.025 nM. Further, in series [3], the remaining at 1 h, 10 µM was 96%. In addition, in series [2] (setting [6]), the remaining at 4 h, 10 µM is 105%.
Consider `CC(C)C[C@]1(C)NC(=O)[C@H](Cc2ccc3ccccc3c2)NC(=O)[C@H](Cc2ccc(OCCN)cc2)NC(=O)[C@@H]2CCNC(=O)CC[C@H](NC(=O)[C@H](CO)NC(=O)Cc3ccc(cc3)CNC(=O)CC[C@@H](C(=O)N[C@@H](CCN)C(=O)N[C@@](C)(Cc3cccnc3)C(N)=O)NC1=O)C(=O)N[C@@H](Cc1c[nH]c3ccccc13)C(=O)N[C@@H](CCC(N)=O)C(=O)N2` [Compound 3, [4-Aminomethyl-phenylacetyl](1c)*SE(2c)WQ[Dab](2c)[Y(2-aminoethoxy)][2-Nal][2-Me-Leu]E(1c)[Dab][2-Me-3-(3-Pyridyl)-Ala]-[NH2]], for which the concentration for half-maximal inhibition (IC50) in series [1] (setting [4]) turned out to be 1.7 nM. Further, the remaining at 1 h, 10 µM in series [3] is 99%; in series [2] (setting [7]), 115%. Moreover, the remaining at 4 h, 10 µM in series [2] (setting [6]) is 109%.
Consider `CNC(=O)[C@H](Cc1cccnc1)NC(=O)[C@H](CCN)NC(=O)[C@@H]1CCC(=O)NCc2ccc(cc2)CC(=O)N[C@@H](CO)C(=O)N[C@H]2CCC(=O)NCC[C@H](NC(=O)[C@H](CCC(N)=O)NC(=O)[C@H](Cc3c[nH]c4ccccc34)NC2=O)C(=O)N[C@@H](Cc2ccc(OCCN)cc2)C(=O)N[C@@H](Cc2ccc3ccccc3c2)C(=O)N[C@@](C)(CC(C)C)C(=O)N1` [Compound 8, [4-Aminomethyl-phenylacetyl](1c)*SE(2c)WQ[Dab](2c)[Y(2-aminoethoxy)][2-Nal][2-Me-Leu]E(1c)[Dab][3-(3-Pyridyl)-Ala]-[NHMe]], for which the IC50 in series [1] (setting [4]) was 0.053 nM. In series [2] (setting [6]), the remaining at 4 h, 10 µM was 105%.

For orientation: IC50 means the concentration at which inhibition is half-maximal.
